Results reported in US20230072421A1, “TARGETED RADIOPHARMACEUTICALS FOR THE DIAGNOSIS AND TREATMENT OF PROSTATE CANCER” (Bayer AS, priority 2019, published 2023).

How the values were obtained:
[1] = target: T1, PSMA-expressing LNCaP cells (Homo sapiens, UniProt Q04609); test: Binding competition assay against 3H-PSMA-617 on LNCaP cells; details: for remaining activity at 0.01 µM / remaining activity at 0.1 µM / % remaining 3H-PSMA-617 @ 10 nM (mean) / % remaining 3H-PSMA-617 @ 100 nM (mean): LNCaP cells, 10 nM 3H-PSMA-617, 2 h at 37° C., triplicates; for remaining activity at 0.01 µM / % remaining 3H-PSMA-617 @ 10 nM (mean): competing non-radiolabeled compound 10 nM; for remaining activity at 0.1 µM / % remaining 3H-PSMA-617 @ 100 nM (mean): competing non-radiolabeled compound 100 nM; for competition against 3H-PSMA-617 on PSMA-expressing LNCaP cells (in words): comparison between examples
T1 construct: PSMA-expressing LNCaP cells; endogenous in cells; host or cells: LNCaP
Method in brief: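 Compounds added to LNCaP cells in growth medium, 2 h at 37 °C, 5% CO2. After two ice-cold PBS washes, cells lysed in 0.3 M NaOH and bound radioactivity measured by liquid scintillation counting.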

[2] = tested on: VCap, C4-2, 22Rv1 and LnCap cells; test: Cell proliferation assay, summary statements over several cell lines; type: cell-based; details: for antiproliferative activity on VCap, C4-2, 22Rv1 and LnCap cells (in words): 227Th-labelled compounds bearing the HOPO chelator Example A
Method: Inhibition of cell proliferation of Thorium-227 labeled PMSA SMOL ligands was tested different prostate cancer cell lines, namely 22Rv1, VCaP, C4-2 (all from ATCC, Manassas, Va., USA) and LNCaP (DMSZ, Braunschweig). Cells were seeded using the following conditions in 384 well plates (Corning) in 30 μl of growth media at 4000 cells/well for VCaP cells and 1000 cells/well for 22Rv1, C4-2 and LNCaP cells.
Cells were cultivated an incubator at 37° C. and 5% C02 over night. […] In sister plates cell viability at treatment start (d=0) was determined using CellTiter-Glo® assay (CTG, Promega, Madison, Wis., USA), by adding 30 μl per well CTG solution, incubation for 10 min and reading of Luminescence in a PheraStarFSX instrument (BMG Labtech). After a 5-day exposure in the presenced of test compounds, cell viability of treated or untreated control cells was determined again using CellTiter-Glo® assay (Promega, Madison, Wis., USA). […] The DRC software is a Biobook Spreadsheet that was developed by Bayer AG and Bayer Business Services on the IDBS E-Workbook Suite platform (IDBS: ID Business Solutions Ltd., Guildford, UK).

[3] = tested on: LNCaP human prostate cancer cells; test: LNCaP xenograft efficacy study (T/C tumor area); type: in vivo, SCID mice; details: Example III; day 64 after start of therapy; single treatment 1.5 MBq/kg
Method in brief: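 SCID mice with testosterone pellet bearing s.c. flank LNCaP xenografts (5×10^6 cells in Matrigel) were treated i.v. with a defined radioactive dose once tumors reached 35-50 mm^2 (n=10/group). Tumor area (caliper, longest diameter × perpendicular) measured 2-3× weekly; T/C ratio calculated from tumor areas when vehicle group closed.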

T1 sequence (Q04609 whole entry): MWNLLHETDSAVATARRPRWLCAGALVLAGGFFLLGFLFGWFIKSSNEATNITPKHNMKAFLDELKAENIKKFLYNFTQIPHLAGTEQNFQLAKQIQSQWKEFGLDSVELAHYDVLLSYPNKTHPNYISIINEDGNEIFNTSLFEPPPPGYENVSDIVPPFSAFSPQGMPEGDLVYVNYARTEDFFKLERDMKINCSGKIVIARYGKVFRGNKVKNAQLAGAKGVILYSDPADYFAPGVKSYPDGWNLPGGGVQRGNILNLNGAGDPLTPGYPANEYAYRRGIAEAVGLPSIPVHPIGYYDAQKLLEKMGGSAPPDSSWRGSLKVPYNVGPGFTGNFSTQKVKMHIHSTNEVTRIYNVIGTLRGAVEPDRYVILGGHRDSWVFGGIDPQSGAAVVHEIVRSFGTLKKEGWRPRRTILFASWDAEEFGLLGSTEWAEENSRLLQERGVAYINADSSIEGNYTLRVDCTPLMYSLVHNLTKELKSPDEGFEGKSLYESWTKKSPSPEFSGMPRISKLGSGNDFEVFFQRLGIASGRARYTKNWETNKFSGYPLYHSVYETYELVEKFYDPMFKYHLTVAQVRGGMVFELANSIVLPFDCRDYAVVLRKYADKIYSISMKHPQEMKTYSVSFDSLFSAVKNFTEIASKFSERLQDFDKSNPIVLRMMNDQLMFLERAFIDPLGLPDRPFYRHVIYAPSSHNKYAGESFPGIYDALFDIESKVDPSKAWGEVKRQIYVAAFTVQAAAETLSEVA

SMILES | remaining activity at 0.01 µM [1] | remaining activity at 0.1 µM [1] | competition against 3H-PSMA-617 on PSMA-expressing LNCaP cells (in words) [1] | antiproliferative activity on VCap, C4-2, 22Rv1 and LnCap cells (in words) [2] | T/Carea [3] | antiproliferative activity on VCap and C4-2 cells (in words) ([2]; 227Th-labelled compounds, in comparison to 227Th-labelled examples 1-C monomer, dimer, trimer and tetramer) | % remaining 3H-PSMA-617 @ 10 nM (mean) [1] | % remaining 3H-PSMA-617 @ 100 nM (mean) [1]
Cc1cc(C(=O)NCCN(CCCN(CCNC(=O)c2cc(C)n(CC(=O)NC[C@H]3CC[C@H](C(=O)N[C@@H](Cc4ccc5ccccc5c4)C(=O)NCCCC[C@H](NC(=O)N[C@@H](CCC(=O)O)C(=O)O)C(=O)O)CC3)c(=O)c2O)CCNC(=O)c2cc(C)n(CC(=O)NC[C@H]3CC[C@H](C(=O)N[C@@H](Cc4ccc5ccccc5c4)C(=O)NCCCC[C@H](NC(=O)N[C@@H](CCC(=O)O)C(=O)O)C(=O)O)CC3)c(=O)c2O)CCNC(=O)c2cc(C)n(CC(=O)NC[C@H]3CC[C@H](C(=O)N[C@@H](Cc4ccc5ccccc5c4)C(=O)NCCCC[C@H](NC(=O)N[C@@H](CCC(=O)O)C(=O)O)C(=O)O)CC3)c(=O)c2O)c(O)c(=O)n1CC(=O)NC[C@H]1CC[C@H](C(=O)N[C@@H](Cc2ccc3ccccc3c2)C(=O)NCCCC[C@H](NC(=O)N[C@@H](CCC(=O)O)C(=O)O)C(=O)O)CC1 [1-C tetramer] | 59% | 7% | improved competition | high antiproliferative activity | 0.36 | – | – | –
Cc1cc(C(=O)NCCN(CCCN(CCNC(=O)c2cc(C)n(CC(=O)NC[C@H]3CC[C@H](C(=O)N[C@@H](Cc4ccc5ccccc5c4)C(=O)NCCCC[C@H](NC(=O)N[C@@H](CCC(=O)O)C(=O)O)C(=O)O)CC3)c(=O)c2O)CCNC(=O)c2cc(C)n(CC(=O)NC[C@H]3CC[C@H](C(=O)N[C@@H](Cc4ccc5ccccc5c4)C(=O)NCCCC[C@H](NC(=O)N[C@@H](CCC(=O)O)C(=O)O)C(=O)O)CC3)c(=O)c2O)CCNC(=O)c2cc(C)n(CC(=O)NC[C@H]3CC[C@H](C(=O)N[C@@H](Cc4ccc5ccccc5c4)C(=O)NCCCC[C@H](NC(=O)N[C@@H](CCC(=O)O)C(=O)O)C(=O)O)CC3)c(=O)c2O)c(O)c(=O)n1CC(=O)O [1-C trimer] | 45% | 9% | improved competition | high antiproliferative activity | – | – | – | –
Cc1cc(C(=O)NCCN(CCCN(CCNC(=O)c2cc(C)n(CC(=O)NCc3ccc(C(=O)N[C@@H](Cc4ccc5ccccc5n4)C(=O)NCCCC[C@H](NC(=O)N[C@@H](CCC(=O)O)C(=O)O)C(=O)O)nc3)c(=O)c2O)CCNC(=O)c2cc(C)n(CC(=O)NCc3ccc(C(=O)N[C@@H](Cc4ccc5ccccc5n4)C(=O)NCCCC[C@H](NC(=O)N[C@@H](CCC(=O)O)C(=O)O)C(=O)O)nc3)c(=O)c2O)CCNC(=O)c2cc(C)n(CC(=O)NCc3ccc(C(=O)N[C@@H](Cc4ccc5ccccc5n4)C(=O)NCCCC[C@H](NC(=O)N[C@@H](CCC(=O)O)C(=O)O)C(=O)O)nc3)c(=O)c2O)c(O)c(=O)n1CC(=O)NCc1ccc(C(=O)N[C@@H](Cc2ccc3ccccc3n2)C(=O)NCCCC[C@H](NC(=O)N[C@@H](CCC(=O)O)C(=O)O)C(=O)O)nc1 [34-C tetramer] | 73% | 14% | – | high antiproliferative activity | – | improved antiproliferative activity | – | –
CNc1cc(CC(NC(=O)C2CCC(CNC(=O)Cn3c(C)cc(C(=O)NCCN(CCCN(CCNC(=O)c4cc(C)n(CC(=O)O)c(=O)c4O)CCNC(=O)c4cc(C)n(CC(=O)NCC5CCC(C(=O)NC(Cc6cc(NC)c7ccccc7c6)C(=O)NCCCCC(NC(=O)NC(CCC(=O)O)C(=O)O)C(=O)O)CC5)c(=O)c4O)CCNC(=O)c4cc(C)n(CC(=O)O)c(=O)c4O)c(O)c3=O)CC2)C(=O)NCCCCC(NC(=O)NC(CCC(=O)O)C(=O)O)C(=O)O)cc2ccccc12 (centres unmarked) [37-C dimer] | – | – | – | high antiproliferative activity | – | – | 64% | 13%
Cc1cc(C(=O)NCCN(CCCN(CCNC(=O)c2cc(C)n(CC(=O)O)c(=O)c2O)CCNC(=O)c2cc(C)n(CC(=O)NC[C@H]3CC[C@H](C(=O)N[C@@H](Cc4ccc5ccccc5c4)C(=O)NCCCC[C@H](NC(=O)N[C@@H](CCC(=O)O)C(=O)O)C(=O)O)CC3)c(=O)c2O)CCNC(=O)c2cc(C)n(CC(=O)O)c(=O)c2O)c(O)c(=O)n1CC(=O)O [Example 1-C Monomer] | 32% | 5% | improved competition | high antiproliferative activity | – | – | – | –
Cc1cc(C(=O)NCCN(CCCN(CCNC(=O)c2cc(C)n(CC(=O)O)c(=O)c2O)CCNC(=O)c2cc(C)n(CC(=O)NC[C@H]3CC[C@H](C(=O)N[C@@H](Cc4ccc5ccccc5n4)C(=O)NCCCC[C@H](NC(=O)N[C@@H](CCC(=O)O)C(=O)O)C(=O)O)CC3)c(=O)c2O)CCNC(=O)c2cc(C)n(CC(=O)O)c(=O)c2O)c(O)c(=O)n1CC(=O)O [Example 17-C monomer] | 42% | 8% | – | high antiproliferative activity | – | – | – | –
Cc1cc(C(=O)NCCN(CCCN(CCNC(=O)c2cc(C)n(CC(=O)NC[C@H]3CC[C@H](C(=O)N[C@@H](Cc4cnc5ccccc5c4)C(=O)NCCCC[C@H](NC(=O)N[C@@H](CCC(=O)O)C(=O)O)C(=O)O)CC3)c(=O)c2O)CCNC(=O)c2cc(C)n(CC(=O)NC[C@H]3CC[C@H](C(=O)N[C@@H](Cc4cnc5ccccc5c4)C(=O)NCCCC[C@H](NC(=O)N[C@@H](CCC(=O)O)C(=O)O)C(=O)O)CC3)c(=O)c2O)CCNC(=O)c2cc(C)n(CC(=O)NC[C@H]3CC[C@H](C(=O)N[C@@H](Cc4cnc5ccccc5c4)C(=O)NCCCC[C@H](NC(=O)N[C@@H](CCC(=O)O)C(=O)O)C(=O)O)CC3)c(=O)c2O)c(O)c(=O)n1CC(=O)O [Example 22-C trimer] | – | – | – | high antiproliferative activity | – | – | 33% | 5%
